Assay results reported in ChEMBL document CHEMBL5104157, “Design, synthesis and biological evaluation of light-driven on-off multitarget AChE and MAO-B inhibitors” (RSC Med Chem, 2022).

Experiments:
[1] = biological target: Acetylcholinesterase (Homo sapiens, UniProt P22303); assay: Inhibition of human serum recombinant AChE using acetylthiocholine iodide as a substrate incubated for 20 mins by DTNB reagent based Ellman's method; assay type: cell-free
[2] = biological target: Amyloid-beta precursor protein (Homo sapiens) (UniProt P05067); assay: Inhibition of amyloid beta (1 to 40) (unknown origin) self aggregation at 10 uM incubated for 2 hrs by ThT fluorescence assay
[3] = biological target: T1, Amine oxidase [flavin-containing] B (Homo sapiens, UniProt P27338); assay: Inhibition of human recombinant MAO-B assessed as reduction in 4-hydroxyquinoline level using kynuramine as a substrate preincubated for 5 mins followed by substrate addition by spectrofluorimetric analysis
T1 sequence (P27338 whole entry): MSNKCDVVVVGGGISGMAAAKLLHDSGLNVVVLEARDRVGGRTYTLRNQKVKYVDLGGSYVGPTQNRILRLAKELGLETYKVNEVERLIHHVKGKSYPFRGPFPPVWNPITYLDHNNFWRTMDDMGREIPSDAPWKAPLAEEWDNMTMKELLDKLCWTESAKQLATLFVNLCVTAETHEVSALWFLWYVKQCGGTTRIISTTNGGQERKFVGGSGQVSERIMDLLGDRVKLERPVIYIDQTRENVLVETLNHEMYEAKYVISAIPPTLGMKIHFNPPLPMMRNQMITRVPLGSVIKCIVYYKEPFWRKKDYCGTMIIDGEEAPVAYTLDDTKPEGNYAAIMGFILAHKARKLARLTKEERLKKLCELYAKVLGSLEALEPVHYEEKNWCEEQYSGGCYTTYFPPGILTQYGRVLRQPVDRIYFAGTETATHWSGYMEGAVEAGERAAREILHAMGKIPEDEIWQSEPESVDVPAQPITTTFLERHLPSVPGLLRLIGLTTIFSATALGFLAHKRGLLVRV

[4] = biological target: T2, MAO-A (amine oxidase [flavin-containing] A) (Homo sapiens, UniProt P21397); assay: Inhibition of human recombinant MAO-A assessed as reduction in 4-hydroxyquinoline level using kynuramine as a substrate at 10 uM preincubated for 5 mins followed by substrate addition by spectrofluorimetric analysis; conditions: probe kynuramine
T2 sequence (P21397 whole entry): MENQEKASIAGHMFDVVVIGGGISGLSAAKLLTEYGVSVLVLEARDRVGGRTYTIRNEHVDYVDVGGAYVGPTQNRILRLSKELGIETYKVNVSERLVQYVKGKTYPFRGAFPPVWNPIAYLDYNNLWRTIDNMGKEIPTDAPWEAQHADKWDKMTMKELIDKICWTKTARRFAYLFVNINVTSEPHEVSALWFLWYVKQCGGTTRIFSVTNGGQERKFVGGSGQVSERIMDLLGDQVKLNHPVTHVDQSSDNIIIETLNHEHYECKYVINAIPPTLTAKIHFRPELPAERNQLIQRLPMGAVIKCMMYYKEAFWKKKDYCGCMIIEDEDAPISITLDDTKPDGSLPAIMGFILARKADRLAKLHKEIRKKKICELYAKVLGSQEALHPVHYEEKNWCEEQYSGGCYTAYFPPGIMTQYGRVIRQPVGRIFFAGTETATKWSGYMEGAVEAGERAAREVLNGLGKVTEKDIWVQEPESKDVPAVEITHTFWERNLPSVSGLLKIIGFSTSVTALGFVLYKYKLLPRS

[5] = biological target: Cholinesterase (Homo sapiens) (UniProt P06276); assay: Inhibition of human serum recombinant BChE using butyrylthiocholine iodide as a substrate at 10 uM incubated for 20 mins by DTNB reagent based Ellman's method; assay type: cell-free
[6] = biological target: T3, Amine oxidase [flavin-containing] A (Homo sapiens, UniProt P21397); assay: Inhibition of human recombinant MAO-A assessed as reduction in 4-hydroxyquinoline level using kynuramine as a substrate preincubated for 5 mins followed by substrate addition by spectrofluorimetric analysis
T3 sequence (P21397 whole entry): T2 sequence (P21397 whole entry)

Sequence of Amyloid-beta precursor protein (Homo sapiens) (P05067 whole entry): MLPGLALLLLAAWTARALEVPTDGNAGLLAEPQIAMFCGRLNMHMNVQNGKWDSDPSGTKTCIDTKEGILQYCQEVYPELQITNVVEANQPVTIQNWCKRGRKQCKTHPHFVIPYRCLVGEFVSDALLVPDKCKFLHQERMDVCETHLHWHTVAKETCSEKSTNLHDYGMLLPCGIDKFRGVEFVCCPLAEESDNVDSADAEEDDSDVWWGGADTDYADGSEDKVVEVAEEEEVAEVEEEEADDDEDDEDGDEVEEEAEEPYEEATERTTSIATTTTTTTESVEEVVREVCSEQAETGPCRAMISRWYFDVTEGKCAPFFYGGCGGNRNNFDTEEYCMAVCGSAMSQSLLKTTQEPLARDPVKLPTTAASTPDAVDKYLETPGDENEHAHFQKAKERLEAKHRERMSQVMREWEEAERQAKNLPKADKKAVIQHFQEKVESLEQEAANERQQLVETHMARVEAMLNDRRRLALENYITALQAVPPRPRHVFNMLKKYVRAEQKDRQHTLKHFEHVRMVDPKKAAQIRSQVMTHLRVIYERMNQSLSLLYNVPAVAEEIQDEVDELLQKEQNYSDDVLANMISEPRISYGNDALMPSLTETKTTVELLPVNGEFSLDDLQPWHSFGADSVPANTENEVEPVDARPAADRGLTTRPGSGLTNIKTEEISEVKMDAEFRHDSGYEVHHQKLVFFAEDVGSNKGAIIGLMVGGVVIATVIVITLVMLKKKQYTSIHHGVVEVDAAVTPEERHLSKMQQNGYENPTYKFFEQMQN
Sequence of Acetylcholinesterase (P22303 whole entry): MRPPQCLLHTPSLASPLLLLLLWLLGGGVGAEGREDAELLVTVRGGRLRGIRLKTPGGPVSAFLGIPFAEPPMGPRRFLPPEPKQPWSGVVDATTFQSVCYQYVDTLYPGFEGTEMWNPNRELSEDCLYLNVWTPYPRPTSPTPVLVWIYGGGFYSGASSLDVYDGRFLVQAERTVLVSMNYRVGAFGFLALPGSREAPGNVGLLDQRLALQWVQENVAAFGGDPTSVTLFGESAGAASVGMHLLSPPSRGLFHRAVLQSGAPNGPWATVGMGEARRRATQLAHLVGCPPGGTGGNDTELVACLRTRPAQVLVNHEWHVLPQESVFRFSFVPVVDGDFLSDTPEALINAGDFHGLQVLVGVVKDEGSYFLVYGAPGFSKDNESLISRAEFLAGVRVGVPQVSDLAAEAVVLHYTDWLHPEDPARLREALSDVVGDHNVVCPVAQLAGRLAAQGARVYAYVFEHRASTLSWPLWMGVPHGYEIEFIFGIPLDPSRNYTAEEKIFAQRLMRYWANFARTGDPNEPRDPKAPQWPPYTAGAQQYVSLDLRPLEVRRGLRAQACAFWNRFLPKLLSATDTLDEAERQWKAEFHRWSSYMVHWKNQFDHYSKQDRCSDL
Sequence of Cholinesterase (Homo sapiens) (P06276 whole entry): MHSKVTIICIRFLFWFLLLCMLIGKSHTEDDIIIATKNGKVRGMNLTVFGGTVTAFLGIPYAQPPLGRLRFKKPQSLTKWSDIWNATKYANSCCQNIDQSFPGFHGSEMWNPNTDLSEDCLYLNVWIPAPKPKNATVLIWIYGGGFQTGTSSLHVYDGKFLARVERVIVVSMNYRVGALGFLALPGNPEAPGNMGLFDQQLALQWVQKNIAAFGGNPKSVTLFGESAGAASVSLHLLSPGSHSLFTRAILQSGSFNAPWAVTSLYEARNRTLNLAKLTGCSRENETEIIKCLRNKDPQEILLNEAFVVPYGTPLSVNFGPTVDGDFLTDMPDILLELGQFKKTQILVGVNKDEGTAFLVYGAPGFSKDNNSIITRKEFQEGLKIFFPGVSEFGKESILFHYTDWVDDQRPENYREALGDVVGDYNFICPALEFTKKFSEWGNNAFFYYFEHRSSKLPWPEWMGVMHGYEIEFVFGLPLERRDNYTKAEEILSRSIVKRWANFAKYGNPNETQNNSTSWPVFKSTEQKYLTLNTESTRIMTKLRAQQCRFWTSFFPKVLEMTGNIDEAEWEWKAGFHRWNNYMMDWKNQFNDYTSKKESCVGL

Row | SMILES | IC50 [1] [nM] | inhibition [2] [%] | IC50 [3] [nM] | inhibition at 10 µM [4] [%] | inhibition [5] [%] | IC50 [6] [nM]
1 | CCN(CC)Cc1ccc(C=C2Cc3cc(OC)c(OC)cc3C2=O)cc1 | 253 | 56 |  |  |  | 
2 | O=c1c(O)c(-c2ccc(O)c(O)c2)oc2cc(O)cc(O)c12 |  | 84.4 |  |  |  | 
3 | CCN(CC)Cc1ccc(/C=C2\Cc3cc(OC)c(OC)cc3C2=O)cc1 | 63 |  | 783 | 49.6 |  | 
4 | CCN(CC)Cc1ccc(C=C2Cc3ccc(OC)cc3C2=O)cc1 | 1100 | 37.7 |  |  | 8.3 | 
5 | CCN(CC)Cc1ccc(/C=C2\Cc3cc(OC)ccc3C2=O)cc1 | 113 | 7.4 |  | 32.8 |  | 
6 | CCN(CC)Cc1ccc(C=C2Cc3ccccc3C2=O)cc1 | 1310 | 8.1 |  |  | 16.2 | 
7 | CCN(CC)Cc1ccc(/C=C2\Cc3ccc(OC)cc3C2=O)cc1 | 964 |  | 91 |  | 14.3 | 95
8 | CCN(CC)Cc1ccc(/C=C2\Cc3ccccc3C2=O)cc1 | 612 |  | 661 | 42.7 | 17.8 | 
9 | CCN(CC)Cc1ccc(/C=C2/Cc3cc(OC)ccc3C2=O)cc1 | 1150 | 23.4 | 1940 | 28.2 |  | 
10 | CCN(CC)Cc1ccc(C=C2Cc3cc(OC)ccc3C2=O)cc1 | 505 |  |  | 45.1 |  | 
